Publication PMC9796130, “The First Structure of Human MTHFD2L and Its Implications for the Development of Isoform‐Selective Inhibitors” (Chemmedchem, 2022)
pIC50: −log10 of the molar value.

Molecular target: T1, MTHFD2L (Homo sapiens, UniProt Q9H903)
T1 construct: amino acids 50–347, His-tagged
T1 sequence (Q9H903 50-347): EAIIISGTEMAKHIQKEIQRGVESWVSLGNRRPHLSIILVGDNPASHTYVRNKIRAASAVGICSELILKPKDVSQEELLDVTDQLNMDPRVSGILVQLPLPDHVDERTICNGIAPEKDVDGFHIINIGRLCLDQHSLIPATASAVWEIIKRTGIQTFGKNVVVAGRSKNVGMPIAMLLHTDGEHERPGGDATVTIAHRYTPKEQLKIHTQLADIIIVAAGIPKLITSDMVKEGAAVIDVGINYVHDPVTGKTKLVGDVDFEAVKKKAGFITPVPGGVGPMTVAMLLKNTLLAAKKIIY
Experiment: X-ray co-crystal structure ([…] Å); IC50 on purified enzyme by NAD(P)H-Glo luminescence assay
Format: biochemical

- pIC50: 6.76
Compound: Nc1nc(N)c(NC(=O)Nc2ccc(C(=O)NC(CCC(=O)O)C(=O)O)cc2)c(O)n1 (stereo not shown) [TH7299]
